Source: US12590099B2, “Inhibitors of histone deacetylase useful for the treatment or prevention of HIV infection” (Merck Sharp & Dohme LLC, priority 2018, dated 2026)
Where two headings read alike, the source gives them in different places.

How the values were obtained:
Recombinant human HDAC2 = target: T1, Recombinant human HDAC2 (Homo sapiens, UniProt Q92769); assay: Human HDAC enzyme inhibitor Fluor-de-Lys assay, HDAC2; assay type: biochemical
T1 construct: Full length human HDAC2-FLAG was expressed in baculovirus infected Sf9 cells; FLAG (C); made in house; host or cells: Sf9 (baculovirus)
T1 sequence (Q92769 whole entry): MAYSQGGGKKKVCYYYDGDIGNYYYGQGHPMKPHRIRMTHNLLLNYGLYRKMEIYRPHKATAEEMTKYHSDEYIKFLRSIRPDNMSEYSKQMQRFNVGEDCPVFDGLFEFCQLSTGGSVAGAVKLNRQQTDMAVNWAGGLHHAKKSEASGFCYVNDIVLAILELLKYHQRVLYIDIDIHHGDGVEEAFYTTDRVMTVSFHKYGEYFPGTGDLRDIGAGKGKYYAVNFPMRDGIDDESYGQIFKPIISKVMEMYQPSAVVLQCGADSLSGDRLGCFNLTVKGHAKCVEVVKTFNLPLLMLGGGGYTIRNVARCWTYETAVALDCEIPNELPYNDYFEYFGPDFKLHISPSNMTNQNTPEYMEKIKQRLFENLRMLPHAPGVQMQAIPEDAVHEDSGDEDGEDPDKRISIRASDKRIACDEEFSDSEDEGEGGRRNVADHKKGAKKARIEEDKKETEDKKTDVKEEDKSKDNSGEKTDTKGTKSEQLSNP
Protocol: (§1) Human HDAC Enzyme Inhibitor Fluor-De-Lys Assay
(§2) Recombinant human HDAC8 (BML-SE145-0100) and HDAC10 (BML-SE559-0050) enzymes, HDAC substrates BML-KI104 and BML-KI178, and HDAC developer solutions BML-KI105 and BML-KI176 were purchased from Enzo Life Sciences. […] HDAC inhibitor suberoylanilide hydroxamic acid (SAHA) was obtained from Indofine and trichostatin A (TSA) was obtained from Sigma-Aldrich.
(§3) Recombinant human HDAC1, HDAC2, and HDAC3/SMRT heterodimer were prepared by Merck Research Laboratories. […] The eluted protein was then passed over an anti-HDAC1 immunoaffinity column to remove any complexes containing HDAC1. […]
(§4) The histone deacetylase activities of HDAC1, HDAC2, HDAC3, HDAC6, and HDAC8 were measured in modified FLUOR DE LYS assays in 384-well format. In this assay, HDAC enzymes are initially incubated with an ε-acetyl (or -trifluoroacetyl)-L-lysine-containing substrate with a C-terminal amide having aminomethylcoumarin as the amine component. HDACs cleave the ε-acetyl group, rendering the resulting product susceptible to AMC cleavage by trypsin. The released AMC is then detected by its fluorescence.
(§5) The HDAC3/SMRT assay employed buffer B, consisting of 20 mM HEPES, pH 8.0, 1 mM MgCl2, 50 mM NaCl, 2.7 mM KCl, 0.05% BSA, 0.005% Tween 20, and 10 μM IP4. […] The HDAC8 assay employed buffer D, consisting of 20 mM HEPES, pH 8.0, 1 mM MgCl2, 100 mM NaCl, 20 mM KCl, 0.10% n-octyl-β-D-glucoside (Anatrace) and 0.05% BSA. All steps were performed at room temperature (23° C.). The assay was performed by pre-incubating serial dilutions of test compounds with the target HDAC prior to initiation with substrate. Each compound was titrated in a 10-point dose response, using a 1:3 fold dilution scheme, with 0.15 ul of solution added by ECH0555 to the plate, followed by the addition of 20 μl of the appropriate HDAC isoform diluted in appropriate assay buffer. […] Final conditions used for each assay were: 1. HDAC 1, 0.3 nM total enzyme, 20 μM substrate BML-KI104; 2. […] HDAC 3/SMRT, 0.3 nM total enzyme, 20 μM substrate BML-KI104; 4. […] The reactions were stopped and developed by addition of 30 ul of HDAC developer solution containing a saturating level of HDAC inhibitor as follows: 1.

HDAC6 = target: T2, HDAC6 (Homo sapiens, UniProt Q9UBN7); assay: Human HDAC enzyme inhibitor Fluor-de-Lys assay, HDAC6; assay type: biochemical
T2 sequence (Q9UBN7 1-1215): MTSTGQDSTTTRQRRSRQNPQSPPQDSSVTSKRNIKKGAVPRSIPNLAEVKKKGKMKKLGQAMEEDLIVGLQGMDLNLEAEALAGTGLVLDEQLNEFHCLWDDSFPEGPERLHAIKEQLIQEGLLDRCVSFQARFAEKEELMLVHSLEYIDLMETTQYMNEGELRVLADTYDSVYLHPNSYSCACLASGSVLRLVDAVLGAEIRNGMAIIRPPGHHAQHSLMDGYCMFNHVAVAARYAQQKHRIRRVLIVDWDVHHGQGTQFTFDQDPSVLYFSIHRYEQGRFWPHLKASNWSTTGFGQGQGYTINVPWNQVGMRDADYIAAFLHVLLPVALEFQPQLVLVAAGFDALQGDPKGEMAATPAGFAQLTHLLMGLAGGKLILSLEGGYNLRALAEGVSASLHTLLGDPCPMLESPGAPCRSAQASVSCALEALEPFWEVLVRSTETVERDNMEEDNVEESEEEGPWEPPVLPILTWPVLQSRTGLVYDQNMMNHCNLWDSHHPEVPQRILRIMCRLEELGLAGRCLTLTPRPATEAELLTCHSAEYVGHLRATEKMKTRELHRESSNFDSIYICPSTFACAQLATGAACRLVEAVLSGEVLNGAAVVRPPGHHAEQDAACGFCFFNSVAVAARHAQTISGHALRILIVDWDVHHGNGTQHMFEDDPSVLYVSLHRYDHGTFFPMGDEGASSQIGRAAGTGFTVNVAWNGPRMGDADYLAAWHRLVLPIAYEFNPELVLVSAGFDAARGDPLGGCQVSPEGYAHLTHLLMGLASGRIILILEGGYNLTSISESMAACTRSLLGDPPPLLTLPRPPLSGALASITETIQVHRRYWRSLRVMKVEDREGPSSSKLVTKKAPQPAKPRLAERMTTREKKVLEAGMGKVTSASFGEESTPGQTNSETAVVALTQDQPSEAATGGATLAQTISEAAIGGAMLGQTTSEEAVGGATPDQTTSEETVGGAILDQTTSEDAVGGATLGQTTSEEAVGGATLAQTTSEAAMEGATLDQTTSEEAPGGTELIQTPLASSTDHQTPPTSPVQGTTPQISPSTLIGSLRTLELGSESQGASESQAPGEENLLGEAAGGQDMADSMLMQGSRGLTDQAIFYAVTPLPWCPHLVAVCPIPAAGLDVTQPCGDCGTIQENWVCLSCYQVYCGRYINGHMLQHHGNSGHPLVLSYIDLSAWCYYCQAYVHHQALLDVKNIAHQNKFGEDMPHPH

Recombinant human HDAC8 = target: T3, Recombinant human HDAC8 (Homo sapiens, UniProt Q9BY41); assay: Human HDAC enzyme inhibitor Fluor-de-Lys assay, HDAC8; assay type: biochemical
T3 construct: purchased Enzo Life Sciences BML-SE145-0100
T3 sequence (Q9BY41 1-377): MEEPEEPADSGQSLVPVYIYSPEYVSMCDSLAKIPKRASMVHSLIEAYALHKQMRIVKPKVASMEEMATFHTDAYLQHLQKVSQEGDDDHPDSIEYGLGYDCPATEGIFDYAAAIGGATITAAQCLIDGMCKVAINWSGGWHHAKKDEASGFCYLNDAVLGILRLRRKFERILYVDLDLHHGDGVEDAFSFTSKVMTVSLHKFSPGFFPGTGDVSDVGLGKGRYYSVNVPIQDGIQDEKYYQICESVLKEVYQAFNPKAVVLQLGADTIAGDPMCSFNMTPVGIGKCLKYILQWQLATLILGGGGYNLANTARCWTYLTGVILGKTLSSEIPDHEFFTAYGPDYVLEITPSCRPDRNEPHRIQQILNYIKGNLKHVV

KARN cells (Jurkat 2C4) = assay: cells; assay type: cell-based; settings: Homo sapiens, Jurkat
Method in brief: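 Jurkat 2C4 (KARN) cells dosed with test compounds up to 40 μM final, 0.4% DMSO, overnight at 5% CO2; luciferase read by Steady-Glo luminescence after 10 min at room temperature. DMSO set as 0% and 2 μM SAHA as 100% induction; 4-parameter fit of percent activation.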

Recombinant human HDAC1 = target: T4, Recombinant human HDAC1 (Homo sapiens, UniProt Q13547); assay: Human HDAC enzyme inhibitor Fluor-de-Lys assay, HDAC1; assay type: biochemical; settings: recombinant human HDAC1, Fluor-de-Lys assay
T4 construct: FLAG (C); made in house
T4 sequence (Q13547 whole entry): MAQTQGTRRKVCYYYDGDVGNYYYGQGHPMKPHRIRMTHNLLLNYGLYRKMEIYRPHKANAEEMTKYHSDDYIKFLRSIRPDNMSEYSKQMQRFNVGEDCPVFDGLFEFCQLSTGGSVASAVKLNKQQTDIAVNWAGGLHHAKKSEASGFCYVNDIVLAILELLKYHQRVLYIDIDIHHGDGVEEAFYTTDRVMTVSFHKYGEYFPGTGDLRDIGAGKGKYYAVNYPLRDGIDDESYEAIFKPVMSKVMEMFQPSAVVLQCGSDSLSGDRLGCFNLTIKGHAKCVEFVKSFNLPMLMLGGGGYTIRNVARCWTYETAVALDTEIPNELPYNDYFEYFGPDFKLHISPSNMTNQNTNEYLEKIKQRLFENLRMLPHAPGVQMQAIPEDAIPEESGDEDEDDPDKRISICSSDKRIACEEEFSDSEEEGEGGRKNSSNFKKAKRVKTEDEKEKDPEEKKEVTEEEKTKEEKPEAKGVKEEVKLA
Protocol: as §1, §2, §3, §4, §5

[1] = target: T5, Recombinant human HDAC3/SMRT heterodimer (Homo sapiens, UniProt O15379); assay: Human HDAC enzyme inhibitor Fluor-de-Lys assay, HDAC3/SMRT; assay type: biochemical; settings: recombinant human HDAC3/SMRT, Fluor-de-Lys assay
T5 construct: FLAG (C); made in house
T5 sequence (O15379 whole entry): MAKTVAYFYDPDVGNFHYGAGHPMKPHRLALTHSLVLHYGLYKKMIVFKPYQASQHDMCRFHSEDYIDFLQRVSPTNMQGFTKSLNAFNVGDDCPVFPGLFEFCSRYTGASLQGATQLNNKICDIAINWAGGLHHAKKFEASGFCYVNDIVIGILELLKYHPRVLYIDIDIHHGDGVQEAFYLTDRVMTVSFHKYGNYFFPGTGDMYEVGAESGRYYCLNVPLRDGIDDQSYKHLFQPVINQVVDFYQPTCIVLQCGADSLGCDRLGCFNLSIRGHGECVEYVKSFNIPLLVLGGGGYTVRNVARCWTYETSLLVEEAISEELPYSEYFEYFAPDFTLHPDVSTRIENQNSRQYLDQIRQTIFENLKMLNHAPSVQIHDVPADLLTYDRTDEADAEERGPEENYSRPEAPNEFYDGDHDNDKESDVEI
T5 sequence (Q9Y618 1-899 partner limits assumed): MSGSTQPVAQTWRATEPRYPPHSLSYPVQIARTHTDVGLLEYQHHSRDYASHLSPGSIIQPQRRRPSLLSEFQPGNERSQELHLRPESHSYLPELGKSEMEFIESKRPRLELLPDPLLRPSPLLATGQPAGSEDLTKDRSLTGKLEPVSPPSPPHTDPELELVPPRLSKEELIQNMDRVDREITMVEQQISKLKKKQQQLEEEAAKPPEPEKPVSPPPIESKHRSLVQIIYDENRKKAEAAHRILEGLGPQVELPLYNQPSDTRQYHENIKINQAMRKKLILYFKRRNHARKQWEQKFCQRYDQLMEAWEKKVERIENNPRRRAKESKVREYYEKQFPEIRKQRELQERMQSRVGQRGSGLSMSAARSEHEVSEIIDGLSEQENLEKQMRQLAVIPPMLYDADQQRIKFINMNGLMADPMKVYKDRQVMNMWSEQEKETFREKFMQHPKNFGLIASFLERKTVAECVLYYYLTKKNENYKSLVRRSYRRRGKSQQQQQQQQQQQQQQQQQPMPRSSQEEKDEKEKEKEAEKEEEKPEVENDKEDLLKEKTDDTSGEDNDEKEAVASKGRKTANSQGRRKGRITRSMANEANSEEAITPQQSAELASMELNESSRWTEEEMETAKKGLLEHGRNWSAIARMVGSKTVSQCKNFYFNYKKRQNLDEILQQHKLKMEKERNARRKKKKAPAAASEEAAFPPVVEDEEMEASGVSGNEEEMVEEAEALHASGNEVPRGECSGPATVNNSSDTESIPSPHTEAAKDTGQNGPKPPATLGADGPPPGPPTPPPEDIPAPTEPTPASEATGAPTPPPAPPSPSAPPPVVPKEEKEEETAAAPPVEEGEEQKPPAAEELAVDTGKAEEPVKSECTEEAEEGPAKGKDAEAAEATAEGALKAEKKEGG

[2] = recombinant human HDAC2, Fluor-de-Lys assay
[3] = read-out: Karn EC50 (nM) 0.1% NHS, 0.1% normal human serum, luciferase induction, 100% = 2 μM SAHA
[4] = read-out: Karn EC50 (nM) 5% NHS, 5% normal human serum, luciferase induction, 100% = 2 μM SAHA
[5] = recombinant human HDAC8, Fluor-de-Lys assay

IC50 (HDAC6; HDAC6, Fluor-de-Lys assay)	SMILES	IC50 (Recombinant human HDAC2)	IC50 (HDAC6)	IC50 (Recombinant human HDAC8)	EC50 (KARN cells (Jurkat 2C4); read-out: Karn EC50 (nM) 0.1% NHS, 0.1% normal human serum)	EC50 (KARN cells (Jurkat 2C4); read-out: Karn EC50 (nM) 5% NHS, 5% normal human serum)	IC50 (Recombinant human HDAC1)	IC50 (Recombinant human HDAC2; [2])	IC50 [1]	EC50 (KARN cells (Jurkat 2C4); [3])	EC50 (KARN cells (Jurkat 2C4); [4])	IC50 (Recombinant human HDAC8; [5])
–	CCC(=O)CCCCC[C@H](NC(=O)[C@H]1CC12CCN(CC)CC2)c1ncc(-c2cc3cccnc3cc2OC)o1 [Compound 169]	0.0022 µM	0.083 µM	7.58 µM	91 nM	78 nM	–	–	–	–	–	–
–	CCC(=O)CCCCC[C@H](NC(=O)C1CC12CCN(CC)CC2)c1nc(-c2ccc(F)cc2)[nH]c1-c1cccc(OC)c1 (some centres unmarked) [Compound 246]	–	–	–	–	–	0.177 µM	0.769 µM	0.155 µM	1940 nM	3770 nM	–
6.37 µM	CCC(=O)CCCCC[C@H](NC(=O)[C@H]1CC12CCN(C)CC2)c1ncc(-c2ccn3ncnc3c2)[nH]1 [Compound 267]	–	–	–	–	–	0.0467 µM	0.17 µM	–	–	–	11.6 µM
–	CCC(=O)CCCCC[C@H](NC(=O)C1NC(=O)CC12CN(C(=O)OC(C)(C)C)C2)c1nnc(-c2cc3ccccc3nc2OC)o1 (some centres unmarked) [Compound 302]	–	–	–	–	–	0.0494 µM	0.121 µM	0.0376 µM	4460 nM	7430 nM	> 45 µM
–	CCC(=O)CCCCC[C@H](NC(=O)C1NC(=O)CC12CNC2)c1nnc(-c2cc3ccccc3nc2OC)o1 (some centres unmarked) [Compound 304]	–	–	–	–	–	0.00359 µM	0.008 µM	0.00323 µM	17300 nM	–	20.8 µM
–	CCC(=O)CCCCC[C@H](NC(=O)C1NC(=O)CC12CN(C)C2)c1nnc(-c2cc3ccccc3nc2OC)o1 (some centres unmarked) [Compound 309]	–	–	–	–	–	0.00691 µM	0.0193 µM	0.00719 µM	1350 nM	1920 nM	24 µM
1.47 µM	CCC(=O)CCCCC[C@H](NC(=O)[C@H]1CC12CCN(C)CC2)c1ncc(-c2ccc3cnc(Cl)cc3c2)[nH]1 [Compound 351]	–	–	–	–	–	0.00157 µM	0.0071 µM	0.00132 µM	–	–	5.83 µM
8.29 µM	CCC(=O)CCCCC[C@H](NC(=O)[C@H]1CC[C@]2(CC1)OC(=O)c1ncccc12)c1ncc(-c2ccccc2)[nH]1 [Compound 377]	–	–	–	–	–	0.0471 µM	0.233 µM	0.0069 µM	–	–	3.01 µM
